Measurements published in patent US12053527B2, “Compositions with permeation enhancers for drug delivery” (priority 2015, dated 2024).

What was measured:
[1] = Linear oscillatory shear rheology (gelation temperature, storage and loss moduli); details: for effect on plateau values of G′ and G″ / mechanical properties and gelation temperature: CPE added separately to Cip-18% [P407-PBP]; for reduction of gelation temperature: CPE added separately to Cip-18% [P407-PBP] (1% SDS, 2% limonene or 0.5% bupivacaine)
[2] = Pharmacokinetics in the OM model: ciprofloxacin in middle ear fluid and plasma; assay type: in vivo, chinchilla; details: animals treated with the standard formulation
S. pneumoniae = details: cited from earlier work
[3] = system: non-typable H. influenzae (NTHi); details: cited from earlier work
[4] = Ex vivo permeation of ciprofloxacin across the tympanic membrane
[5] = 2% limonene added to Cip-18% [P407-PBP]

SMILES: CCCCN1CCCCC1C(=O)Nc1c(C)cccc1C (centres unmarked) [Bupivacaine]
- effect on plateau values of G′ and G″ / mechanical properties and gelation temperature [1]: minimal effects

SMILES: CCCCCCCCCCCCOS(=O)(=O)[O-].[Na+] [SDS, Sodium dodecyl sulfate]
- effect on plateau values of G′ and G″ / mechanical properties and gelation temperature [1]: did not affect
- reduction of gelation temperature [1]: ~1.5 °C

SMILES: O=C(O)c1cn(C2CC2)c2cc(N3CCNCC3)c(F)cc2c1=O [ciprofloxacin]
- ciprofloxacin in the blood [2]: undetectable
- MIC for S. pneumoniae (S. pneumoniae): 0.5 to 4 µg/mL
- minimum inhibitory concentration for S. pneumoniae middle ear infections (S. pneumoniae): about 4 μg/mL
- MIC for non-typable H. influenzae (NTHi) [3]: <0.1 to 0.5 µg/mL
- minimum inhibitory concentration (MIC) of NTHi [3]: 0.1 to 0.5 µg/mL
- minimum inhibitory concentration for H. influenza middle ear infections [3]: about 4 μg/mL

SMILES: C=C(C)[C@H]1CC=C(C)CC1 [limonene]
- concentration-dependent increase in ciprofloxacin transfer ([4]; 48 hours, limonene added): two-to-three-fold
- time at which ciprofloxacin was detected in the receiving buffer ([4]; limonene added to ciprofloxacin): 1 to 2 h
- decrease of G″ [1, 5]: 4.1 kPa
- increase of G′ [1, 5]: 10.5 kPa
- reduction of gelation temperature [1]: 14 °C
